The record followed here is publication PMC7391726, “Fatty acid mimetic PBI-4547 restores metabolic homeostasis via GPR84 in mice with non-alcoholic fatty liver disease” (Scientific Reports, 2020).

In this assay the target is T1, PPARδ (Homo sapiens, UniProt Q03181).
T1 construct: glutathione S-transferase (GST)-tagged human PPAR-LBD; purchased Fisher Scientific
T1 sequence (Q03181 211-439 limits assumed): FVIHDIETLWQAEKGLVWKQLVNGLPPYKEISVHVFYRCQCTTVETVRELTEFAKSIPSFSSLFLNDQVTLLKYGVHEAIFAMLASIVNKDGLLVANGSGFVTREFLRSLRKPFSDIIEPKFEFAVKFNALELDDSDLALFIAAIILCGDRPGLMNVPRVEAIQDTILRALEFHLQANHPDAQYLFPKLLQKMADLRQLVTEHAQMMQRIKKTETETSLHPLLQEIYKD
Put plainly: LanthaScreen TR-FRET competitive binding assay, PPARδ LBD. The conditions noted are these: Cheng-Prusoff; read-out: Ki inhibition constant, PPARδ LBD. The text has this:
The peroxisome proliferator-activated receptors (PPARs), PPARα, PPARδ, and PPARγ are ligand-dependent transcription factors regulated by FAs, including MCFAs, which control expression of several key metabolism-associated genes. We thus characterized the binding and transcriptional activity of PBI-4547 to these receptors. A LanthaScreen TR-FRET competitive binding assay was used to determine the binding affinity of PBI-4547 in comparison to the full control agonists GW7647 (PPARα), GW0742 (PPARδ), and rosiglitazone (PPARγ).
The LanthaScreen time-resolved fluorescence resonance energy transfer (TR-FRET) PPARα, PPARδ and PPARγ competitive binding assay (Fisher Scientific) was performed according to the manufacturer’s protocol. […] The FRET signal was measured using an Infinite M1000 microplate reader by excitation at 332 nm and emission at 520 nm for fluorescein and 490 nm for terbium. Competitive ligand binding to PPAR is detected by a test compound’s ability to displace the Fluormone pan-PPAR Green from the LBD, which results in a decrease of the 520 nm/490 nm TR-FRET ratio. The inhibition constant (Ki) of the competitor ligand was calculated by applying the Cheng-Prusoff equation.

pKi: −log10 of the molar value.

Usually pKi stands for the Ki on a negative log10 scale, so that one unit is a factor of ten. For the molecule `CCCCCc1cc(CCCCC)cc(CC(=O)[O-])c1.[Na+]` [PBI-4547, 2-[3,5-dipentylphenyl]acetate sodium salt], the pKi was 5.50.
